Columns and labels:
Format in all cases: cell-based, human
[1] = system: H1975 (EGFR L858R/T790M double mutation); assay: Cell antiproliferative assay (CTG, 72 h), H1975
Method: (§1) Test Example 1 Cell Antiproliferative Assay
(§2) H1975: with EGFR: L858R/T790M double mutation; PC-9 with EGFR exon 19 deletion, HCC827 with exon 19 deletion mutation. CellCounting-Lite2.0, Trypsin EDTA, 37° C. CO2 incubator, cell counter, EnVision Serial No.1050454. II. Experimental preparation:
(§3) • (A) Trypsin EDTA was used to digest log-phase cells, medium was added to terminate the reaction, and a cell suspension was made by blowing and mixing with a pipette. • (B) Cell concentration was determined using Vi-cell, and a suspension of 15,000-25,000 cells per milliliter was made depending on the purpose of the experiment and the characteristics of the cells. • (C) After the cell suspension was prepared, it was gently mixed and 100 microliters per well was added so that the density of cells to be tested was 1500-2500 per well.
(§4) • (A) About 2 mg of compound was weighed, and the volume of DMSO required was calculated according to the formula: compound mass (mg)*compound purity (%)/compound molecular weight*1000 • (B) The inoculated cell culture plates were incubated in an incubator and the compounds with concentration gradient were added after about 24 hours. • (C)10 Mm of compound stock solution was diluted to […] with medium, and 50 Mm of compound solution was added sequentially to the second column of the deep-well plate, and […] of medium containing 0.5% DMSO was added to the third to eleventh columns. • (D) Gradient dilution: 125 μl of solution was pipetted from the second column and added to the third column, after mixing; another 125 μl of solution was pipetted from the third column and added to the fourth column, and the operation was repeated until the tenth column. • (E)25 μl of compound was pipetted from the deep-well plate into a 96-well culture plate using a multichannel pipette, and each compound was repeated three times on the 96-well plate. A maximum concentration of 10,000 nm with concentration gradient of 1:4 was eventually formed on the 96-well plate.
(§5) • (A)96-well plates were incubated in an incubator for 72 h. The effect of the compounds was observed under an inverted microscope. • (B)25 μl of CTG solution was added to each well, the plate was put on shaker for 10 minutes and the […] of each well was read.
(§6) The cell viability rate (% Cell Viability) was calculated using the following formula: • % Cell Viability=100%×(Lum_Sample-Lum_LC)/(Lum_HC-Lum_LC) • Lum_HC: Cell reading of 0.1% DMSO control • Lum_Sample: Cell reading with compound added • Lum_LC: Reading of Blank media • IC50 values were obtained by curve fitting with GraphPad Prism 8 software.

[2] = system: PC-9 (EGFR exon 19 deletion); assay: Cell antiproliferative assay (CTG, 72 h), PC-9; details: Table 2, PC-9 cells
Method: as §1, §2, §3, §4, §5, §6

[3] = system: HCC827 (exon 19 deletion mutation); assay: Cell antiproliferative assay (CTG, 72 h), HCC827; details: Table 2, HCC827 cells
Method: as §1, §2, §3, §4, §5, §6

[4] = Homo sapiens, NCI-H1975, 72 h, Table 2, H1975 cells

Structure (SMILES) | IC50 [1, 4] | IC50 ([2]; Homo sapiens, PC-9, 72 h) | IC50 ([3]; Homo sapiens, HCC827, 72 h) | other results
COc1cc(N2CCN(C(=O)CN3CCC(c4cccc(NC5CCC(=O)NC5=O)c4)CC3)CC2)ccc1Nc1ncc(Cl)c(Nc2ccccc2C(C)=O)n1 (stereo not drawn) [Compound T-181] | 100 to 1000 nM | 100 to 1000 nM | ≥ 1000 nM | –
COc1cc(N2CCN(CC(=O)N3CCC(c4ccc(NC5CCC(=O)NC5=O)cc4)CC3)CC2)ccc1Nc1ncc(Cl)c(Nc2ccccc2C(C)=O)n1 (stereo not drawn) [Compound T-338] | 100 to 1000 nM | 100 to 1000 nM | 100 to 1000 nM | –
COc1cc(N2CCN(C(=O)CN3CCC(c4ccc(NC5CCC(=O)NC5=O)cc4)CC3)CC2)c(C(F)(F)F)cc1Nc1ncc(Br)c(Nc2ccccc2C(C)=O)n1 (stereo not drawn) [Compound T-289] | 10 to 100 nM | 10 to 100 nM | 10 to 100 nM | –
COc1cc(C2CCN(C(=O)CN3CCC(c4ccc(NC5CCC(=O)NC5=O)cc4)CC3)CC2)ccc1Nc1ncc(Cl)c(Nc2ccccc2C(C)=O)n1 (stereo not drawn) [Compound T-69] | – | – | – | IC50 ([1]; Table 2, H1975 cells): 100 to 1000 nM; IC50 [2]: 100 to 1000 nM; IC50 [3]: 100 to 1000 nM
CNC(=O)c1ccccc1Nc1nc(Nc2cc(C)c(N3CCN(C(=O)CN4CCC(c5ccc(NC6CCC(=O)NC6=O)cc5)CC4)C(C)C3)cc2OC)ncc1Cl (stereo not drawn) [Compound T-355] | 10 to 100 nM | 10 to 100 nM | 10 to 100 nM | –
COc1cc(N2CCN(C(=O)CN3CCC(c4ccc(NC5CCC(=O)NC5=O)cc4F)CC3)CC2)ccc1Nc1ncc(Cl)c(Nc2ccccc2)n1 (stereo not drawn) [Compound T-04] | 10 to 100 nM | 100 to 1000 nM | ≥ 1000 nM | –
COc1cc(N2CCN(C(=O)CN3CCC(c4ccc(NC5CCC(=O)NC5=O)cc4)CC3)CC2)ccc1Nc1ncc(Cl)c(Nc2cccc(C#N)c2)n1 (stereo not drawn) [Compound T-134] | 10 to 100 nM | ≥ 1000 nM | ≥ 1000 nM | –
COc1cc(N2CCN(C(=O)CN3CCC(c4ccccc4NC4CCC(=O)NC4=O)CC3)CC2)ccc1Nc1ncc(Cl)c(Nc2ccccc2C(C)=O)n1 (stereo not drawn) [Compound T-193] | 100 to 1000 nM | 100 to 1000 nM | 100 to 1000 nM | –
COc1cc(N2CCN(C(=O)CN3CCC(c4ccc(NC5CCC(=O)NC5=O)cc4)CC3)CC2)ccc1Nc1ncc(Cl)c(Nc2ccccc2C(C)(C)O)n1 (stereo not drawn) [Compound T-196] | 10 to 100 nM | 100 to 1000 nM | 100 to 1000 nM | –
COc1cc(N2CCN(C(=O)CN3CCC(c4ccc(NC5CCC(=O)NC5=O)cc4)CC3)CC2)ccc1Nc1ncc(Cl)c(Nc2ccccc2OC(=O)N(C)C)n1 (stereo not drawn) [Compound T-152] | – | – | – | IC50 ([1]; Homo sapiens, NCI-H1975, Table 2, H1975 cells): 100 to 1000 nM; IC50 ([2]; Homo sapiens): ≥ 1000 nM; IC50 ([3]; Homo sapiens): ≥ 1000 nM
CNC(=O)c1ccccc1Nc1nc(Nc2cc(C)c(N3CCN(C(=O)CN4CCC(c5ccc(NC6CCC(=O)NC6=O)cc5F)CC4)CC3)cc2OC)ncc1C(F)(F)F (stereo not drawn) [Compound T-369] | 10 to 100 nM | 10 to 100 nM | 10 to 100 nM | –
COc1cc(N2CCN(CCC3CCN(c4ccc5c(c4)C(=O)N(C4CCC(=O)NC4=O)C5=O)CC3)CC2)ccc1Nc1ncc(Cl)c(Nc2ccccc2C(C)=O)n1 (stereo not drawn) [Compound T-212] | 100 to 1000 nM | ≥ 1000 nM | 100 to 1000 nM | –
COc1cc(N2CCN(C(=O)CN3CCC(c4ccc(NC5CCC(=O)NC5=O)cc4)CC3)CC2)ccc1Nc1ncc(Cl)c(Nc2ccccc2)n1 (stereo not drawn) [Compound T-01] | 10 to 100 nM | 100 to 1000 nM | 100 to 1000 nM | –
COc1cc(N2CCN(C(=O)CN3CCC(c4ccc(NC5CCC(=O)NC5=O)cc4)CC3)C(C)C2)ccc1Nc1ncc(Cl)c(Nc2ccccc2)n1 (stereo not drawn) [Compound T-124] | 100 to 1000 nM | ≥ 1000 nM | ≥ 1000 nM | –
O=C1CCC(Nc2ccc(C3CCN(CC(=O)N4CCN(c5ccc(-c6cc(F)c7c(c6)C(=O)N(C(C(=O)Nc6nccs6)c6ccccc6F)C7)cc5)CC4)CC3)cc2)C(=O)N1 (stereo not drawn) [Compound T-140] | 10 to 100 nM | 100 to 1000 nM | 100 to 1000 nM | –
COc1cc(N2CCN(C(=O)CN3CCC(c4ccc(NC5CCC(=O)NC5=O)cc4)C3)CC2)ccc1Nc1ncc(Cl)c(Nc2ccccc2C(C)=O)n1 (stereo not drawn) [Compound T-242] | 100 to 1000 nM | 100 to 1000 nM | 100 to 1000 nM | –
CNC(=O)c1ccccc1Nc1nc(Nc2cc(C)c(N3CCN(C(=O)CN4CCC(c5ccc(NC6CCC(=O)NC6=O)cc5)CC4)C(C)C3)cc2OC)ncc1C(F)(F)F (stereo not drawn) [Compound T-357] | 10 to 100 nM | 10 to 100 nM | 10 to 100 nM | –

Structure (SMILES) | IC50 [1, 4] | IC50 ([2]; Homo sapiens, PC-9, 72 h) | IC50 ([3]; Homo sapiens, HCC827, 72 h) | other results
COc1cc(N2CCN(C(=O)CN3CCC(c4ccc(NC5CCC(=O)NC5=O)cc4)CC3)CC2)ccc1Nc1ncc(C(F)(F)F)c(Nc2ccccc2C(=O)Nc2ccccc2)n1 (stereo not drawn) [Compound T-267] | 100 to 1000 nM | 100 to 1000 nM | 100 to 1000 nM | –
COc1cc(N2CCN(C(=O)CN3CCC(c4ccc(NC5CCC(=O)NC5=O)cc4)CC3)CC2)c(C)cc1Nc1ncc(Br)c(Nc2ccccc2C(C)=O)n1 (stereo not drawn) [Compound T-59] | 10 to 100 nM | 100 to 1000 nM | 100 to 1000 nM | –
COc1cc(N2CCN(C(=O)CN3CCC(c4ccc(NC5CCC(=O)NC5=O)cc4)CC3)CC2)c(C#N)cc1Nc1ncc(Br)c(Nc2ccccc2C(C)=O)n1 (stereo not drawn) [Compound T-286] | 10 to 100 nM | 10 to 100 nM | 10 to 100 nM | –
COc1cc(N2CCN(C(=O)CN3CCC(c4ccc(NC5CCC(=O)NC5=O)cc4)CC3)CC2)ccc1Nc1ncc(Cl)c(Nc2ccc(F)cc2C(C)(C)O)n1 (stereo not drawn) [Compound T-199] | 10 to 100 nM | 100 to 1000 nM | 100 to 1000 nM | –
CNC(=O)c1ccccc1Nc1nc(Nc2cc(C(F)(F)F)c(N3CCN(C(=O)CN4CCC(c5ccc(NC6CCC(=O)NC6=O)cc5)CC4)CC3)cc2OC)ncc1Br (stereo not drawn) [Compound T-292] | ≤ 10 nM | 10 to 100 nM | 10 to 100 nM | –
COc1cc(N2CCN(C(=O)CN3CCC(c4ccc(NC5CCC(=O)NC5=O)cc4)CC3)CC2)ccc1Nc1ncc(C(F)(F)F)c(-c2cn(C)c3ccccc23)n1 (stereo not drawn) [Compound T-135] | 100 to 1000 nM | ≥ 1000 nM | 100 to 1000 nM | –
CC(=O)c1ccccc1Nc1nc(Nc2ccc(N3CCN(C(=O)CN4CCC(c5ccc(NC6CCC(=O)NC6=O)cc5)CC4)CC3)cc2OC(C)C)ncc1Cl (stereo not drawn) [Compound T-179] | 100 to 1000 nM | ≥ 1000 nM | ≥ 1000 nM | –
COc1cc(N2CC[C@@H](NC(=O)CN3CCC(c4ccc(NC5CCC(=O)NC5=O)cc4)CC3)C2)ccc1Nc1ncc(Cl)c(Nc2ccccc2C(C)=O)n1 (stereo partly drawn) [Compound T-173] | 100 to 1000 nM | ≥ 1000 nM | 100 to 1000 nM | –
CNC(=O)c1ccccc1Nc1nc(Nc2ccc(N3CCN(C(=O)CN4CCC(c5ccc(NC6CCC(=O)NC6=O)cc5)C(F)(F)C4)CC3)cc2OC)ncc1Br (stereo not drawn) [Compound T-313] | ≤ 10 nM | 10 to 100 nM | 10 to 100 nM | –
COc1cc(N2CCN(C(=O)CN3CCC(c4ccc(NC5CCC(=O)NC5=O)cc4)CC3)CC2)c(C)cc1Nc1ncc(Cl)c(Nc2ccccc2C(=O)N(C)C)n1 (stereo not drawn) [Compound T-241] | ≤ 10 nM | 100 to 1000 nM | 100 to 1000 nM | –
COc1cc(N2CCN(CC3CCN(c4ccc5c(c4)C(=O)N(C4CCC(=O)NC4=O)C5=O)CC3)CC2)ccc1Nc1ncc(Cl)c(Nc2ccccc2C(C)=O)n1 (stereo not drawn) [Compound T-226] | 100 to 1000 nM | ≥ 1000 nM | 100 to 1000 nM | –
COc1cc(N2CCN(C(=O)CN3CCC(c4ccc(NC5CCC(=O)NC5=O)cc4)CC3)CC2)ccc1Nc1ncc(C(F)(F)F)c(Nc2ccccc2P(C)(C)=O)n1 (stereo not drawn) [Compound T-46] | 10 to 100 nM | ≥ 1000 nM | 100 to 1000 nM | –
COc1cc(C2CCN(C(=O)CN3CCC(c4ccc(NC5CCC(=O)NC5=O)cc4)CC3)CC2)ccc1Nc1ncc(Cl)c(Nc2ccccc2P(C)(C)=O)n1 (stereo not drawn) [Compound T-331] | 100 to 1000 nM | 100 to 1000 nM | ≥ 1000 nM | –
C=CC(=O)Nc1cc(Nc2ncc(C(F)(F)F)c(Nc3ccccc3)n2)c(OC)cc1N1CCN(C(=O)CN2CCC(c3ccc(NC4CCC(=O)NC4=O)cc3)CC2)CC1 (stereo not drawn) [Compound T-339] | 100 to 1000 nM | 100 to 1000 nM | 100 to 1000 nM | –
COc1cc(N2CCN(C(=O)CN3CCC(c4ccc(NC5CCC(=O)NC5=O)cc4)CC3)CC2)c(C)cc1Nc1ncc(Cl)c(Nc2ccccc2)n1 (stereo not drawn) [Compound T-122] | 100 to 1000 nM | 100 to 1000 nM | 100 to 1000 nM | –
COc1cc(N2CCC[C@H](N(C)CN3CCC(c4ccc(NC5CCC(=O)NC5=O)cc4)CC3)C2)ccc1Nc1ncc(Cl)c(Nc2ccccc2C(C)=O)n1 (stereo partly drawn) [Compound T-167] | 100 to 1000 nM | ≥ 1000 nM | ≥ 1000 nM | –
